Key:
[1] = β-carotene test (coupled oxidation of β-carotene and linoleic acid), in vitro; settings: β Carotene test; for antioxidant activity (in words): chromium compounds and their reactants; for EC50 for antioxidant activity of chromium compounds: Table 6
Protocol: Evaluation of antioxidant activity is based on coupled oxidation of β-carotene and linoleic acid. The technique consists of measuring the consumption of β-carotene as a result of its oxidation process in the reaction mixture. The β-carotene-linoleic acid method has been reported as an efficient technique to detect and evaluate antioxidants from plants and from other sources by several investigation groups. Ten milligram of β-carotene were dissolved in 10 ml chloroform and 0.6 ml of the solution was added to a round flask that contained 20 mg of linoleic acid and 200 mg of Tween 20. Chloroform was removed by evaporation, and 50 ml of distilled water were slowly added to the flask with vigorous agitation to form an emulsion. Two milliliters of the emulsion were added to 1 ml of the examined antioxidant solution. The tubes were placed in a water bath at 50° C. and absorbance measurements were made at 30 minutes intervals [M. S. Taga et al., J. Am. Oil Chem. Soc. 61: 928-931, 1984]. […]

[2] = FRAP assay (ferric reducing/antioxidant power), in vitro

Molecule | antioxidant activity (in words) [1] | EC50 for antioxidant activity of chromium compounds [1] | also measured
O=S(=O)([O-])[O-].O=S(=O)([O-])[O-].O=S(=O)([O-])[O-].[Cr+3].[Cr+3] [Cr2(SO4)3, chromium sulfate, reference compound] | relatively much lower antioxidant effect |  | 
CC(=O)[O-].CC(=O)[O-].CC(=O)[O-].[Cr+3] [Cr Acetate, chromium acetate, reference compound] | lacks any antioxidant activity |  | 
[Cl][Cr]([Cl])[Cl] [CrCl3, chromium chloride, reference compound] | relatively much lower antioxidant effect | 7.2 × 10^-4 mg Cr/ml | antioxidant activity (in words) ([2]; chromium compounds, FRAP, all concentrations used): inactive
N[C@@H](CS)C(=O)O [Cysteine, cysteine, reference compound] | no antioxidant activity |  | 
N[C@@H](CCC(=O)N[C@@H](CS)C(=O)NCC(=O)O)C(=O)O [Glutathione, glutathione, reference compound] | lower activity |  | 
CC(=O)N[C@@H](CS)C(=O)O [NAC, N-acetyl cysteine, reference compound] | lower activity |  | 
Chromium Cysteine [Cr-Cys] | the most active complex | 7.8 × 10^-8 mg Cr/ml | antioxidant activity (in words) ([1]; listed as Cr-cysteine): dose dependent antioxidant activity; fold more active than cysteine ([2]; at equal concentrations of cysteine, FIG. 27): 2.5 fold
Chromium N-Acetyl Cysteine [Cr-NAC] | dose dependent antioxidant activity | 2.7 × 10^-7 mg Cr/ml | 
Chromium-Cystine | did not show any antioxidant activity |  | 
Chromium-Glutathione [Cr-GSH] | dose dependent antioxidant activity | 2.7 × 10^-7 mg Cr/ml | 

Source: patent US6326034A, “Natural extracted and synthetic antioxidant compositions” (priority 1999, dated 2001)
